{
  "source": "patent EP3253400B1",
  "about": "“OLEANOYL PEPTIDE COMPOSITION” (Majeed, Muhammed, priority 2015, dated 2023)",
  "key": {"[1]": {"system": "Transforming Growth Factor-β (TGF- β)", "experiment": "TGF-β production by Human Dermal Fibroblast cells, ELISA", "assay_type": "cell-based", "conditions": "HDF cells, graded concentrations, 48 hrs, vs un-treated cells; values only in Fig. 1", "method": "(§1) Evaluation of Transforming Growth factor beta (TGF-β) and Fibroblast Growth Factor (FGF): Human Dermal Fibroblast (HDF) cells were cultured in DMEM medium with 10% FBS and seeded in 96 well tissue culture plate for the test. […] After 48hrs the supernatant was collected from each well. The amount of TGF-β and FGF produced by the various treated HDF was quantified using ELISA method according to the kit protocol provided by the manufacturer (R&D Systems) and absorbance was measured at 450 nm using Fluostar Optima. Standard curve was generated by plotting absorbance values of standards against appropriate TGF-β/ FGF concentrations. TGF-β/ FGF concentrations of the control and test samples were calculated from the standard graph equation. Percentage increase of expression in test samples was calculated with respect to un-treated cells. The results of the experiment are exemplified in Figs. 1 and 2 respectively. The importance of TGF- β1 in the synthesis of extracellular matrix in well established in • 1. Yang T et al, \"miR-29 mediates TGFβ1-induced extracellular matrix synthesis through activation of PI3K-AKT pathway in human lung fibroblasts\", J Cell Biochem. 2013 Jun;114(6):1336-42; • 2. Tan J et al, \"MicroRNA-29 mediates TGFβ1-induced extracellular matrix synthesis by targeting wnt/β-catenin pathway in human orbital fibroblasts.\" Int J Clin Exp Pathol. 2014 Oct 15;7(11):7571-7; • 3. […]"}, "HSP-90": {"system": "HSP-90", "experiment": "Gene expression analysis, full-thickness in vitro skin culture model (EFT-400), qPCR", "assay_type": "cell-based, human", "conditions": "EFT-400 culture, 100 µL applied, 24 hours; values only in Fig. 3", "description": "(§2) Each culture was visually inspected to ensure even distribution."}, "LOX": {"system": "LOX", "experiment": "Gene expression analysis, full-thickness in vitro skin culture model (EFT-400), qPCR", "assay_type": "cell-based, human", "conditions": "EFT-400 culture, 100 µL applied, 24 hours; values only in Fig. 4", "description": "as §2"}, "TIMP": {"system": "TIMP", "experiment": "Gene expression analysis, full-thickness in vitro skin culture model (EFT-400), qPCR", "assay_type": "cell-based, human", "conditions": "EFT-400 culture, 100 µL applied, 24 hours; values only in Fig. 6", "description": "as §2"}, "DSG3": {"system": "DSG3", "conditions": "gene DSG3 (desmoglein 3); EFT-400 culture, 100 µL applied, 24 hours", "method": "(§3) The objective of the study was to understand how application of test composition containing peptide of SEQ ID No. 1 linked to oleanolic acid represented by STR#1 influences gene expression in the skin. The current study was conducted using a full-thickness in vitro skin culture model (EFT-400, MatTek). One hundred microliters of Test Material was applied to the surface of each test culture and incubated for a period of 24 hours.\n(§4) Treatment and Maintenance of cultures: 100 µL of test composition containing peptide of SEQ ID No. 1 linked to oleanolic acid represented by STR#1 was applied to the center of each EFT-400 culture. A sterile glass spreader was used to distribute the Test Material. Each culture was visually inspected to ensure even distribution. Following application, the cultures were returned to the incubator at 37°C with 5% CO2 for 24 hours. After 24 hours, the Test Materials were washed from the surface of each culture with sterile PBS. Following removal of test material, each culture was cut into quarters and placed into RNA solution.\n(§5) RNA Isolation: RNA was isolated from tissues using a Maxwell 16 LEV RNA Tissue kit following the manufacturer's instructions (Promega) and vacuum concentrated until >200ng/uL as required for OpenArray processing. RNA concentration and purity were determined using a Nanodrop 2000 spectrophotometer. cDNA synthesis: cDNA was generated using a High Capacity cDNA Synthesis Kit according to the manufacturer's instructions for OpenArray processing (Life Technologies).\n(§6) qPCR Processing: qPCR reactions were run using validated Taqman gene expression assays in an OpenArray format. OpenArrays were run in a Life Technologies QuantStudio 12K Flex instrument.\n(§7) Data Analysis: qPCR data was imported into RealTime StatMiner software v4.2 for statistical analysis using the relative quantitation (RQ) method. In the first step of an RQ analysis, the CT value of the target gene is normalized to the CT value of an endogenous control gene for each sample to generate the delta CT (dCT)."}, "HSP-47": {"system": "HSP-47", "conditions": "EFT-400 culture, 100 µL applied, 24 hours; values only in Fig. 5", "method": "as §3, §4, §5, §6, §7"}, "TGFB1": {"system": "TGFB1", "conditions": "gene TGFB1 (transforming growth factor, beta 1); EFT-400 culture, 100 µL applied, 24 hours", "method": "as §3, §4, §5, §6, §7"}, "CLDN7": {"system": "CLDN7", "conditions": "gene CLDN7 (claudin 7); EFT-400 culture, 100 µL applied, 24 hours", "method": "as §3, §4, §5, §6, §7"}, "FLG": {"system": "FLG", "conditions": "gene FLG (filaggrin); EFT-400 culture, 100 µL applied, 24 hours", "method": "as §3, §4, §5, §6, §7"}, "TP63": {"system": "TP63", "conditions": "gene TP63 (tumor protein p63); EFT-400 culture, 100 µL applied, 24 hours", "method": "as §3, §4, §5, §6, §7"}, "LCE3D": {"system": "LCE3D", "conditions": "gene LCE3D (late cornified envelope 3D); EFT-400 culture, 100 µL applied, 24 hours", "method": "as §3, §4, §5, §6, §7"}, "KLK5": {"system": "KLK5", "conditions": "gene KLK5 (kallikrein-related peptidase 5); EFT-400 culture, 100 µL applied, 24 hours", "method": "as §3, §4, §5, §6, §7"}, "CDSN": {"system": "CDSN", "conditions": "gene CDSN (corneodesmosin); EFT-400 culture, 100 µL applied, 24 hours", "method": "as §3, §4, §5, §6, §7"}, "AQP5": {"system": "AQP5", "conditions": "gene AQP5 (aquaporin 5); EFT-400 culture, 100 µL applied, 24 hours", "method": "as §3, §4, §5, §6, §7"}, "CALML5": {"system": "CALML5", "conditions": "gene CALML5 (calmodulin-like 5); EFT-400 culture, 100 µL applied, 24 hours", "method": "as §3, §4, §5, §6, §7"}, "MKI67": {"system": "MKI67", "conditions": "gene MKI67 (antigen identified by Ki-67 antibody); EFT-400 culture, 100 µL applied, 24 hours", "method": "as §3, §4, §5, §6, §7"}, "KRT10": {"system": "KRT10", "conditions": "gene KRT10 (keratin 10); EFT-400 culture, 100 µL applied, 24 hours", "method": "as §3, §4, §5, §6, §7"}, "BMP2": {"system": "BMP2", "conditions": "gene BMP2 (bone morphogenetic protein 2); EFT-400 culture, 100 µL applied, 24 hours", "method": "as §3, §4, §5, §6, §7"}, "ITGB4": {"system": "ITGB4", "conditions": "gene ITGB4 (integrin, beta 4); EFT-400 culture, 100 µL applied, 24 hours", "method": "as §3, §4, §5, §6, §7"}, "KRT4": {"system": "KRT4", "conditions": "gene KRT4 (keratin 4); EFT-400 culture, 100 µL applied, 24 hours", "method": "as §3, §4, §5, §6, §7"}, "LOR": {"system": "LOR", "conditions": "gene LOR (loricrin); EFT-400 culture, 100 µL applied, 24 hours", "method": "as §3, §4, §5, §6, §7"}, "PTGS2": {"system": "PTGS2", "conditions": "gene PTGS2 (Prostaglandin endoperoxide synthase 2/ COX2); EFT-400 culture, 100 µL applied, 24 hours", "method": "as §3, §4, §5, §6, §7"}, "IL8": {"system": "IL8", "conditions": "gene IL8 (interleukin 8); EFT-400 culture, 100 µL applied, 24 hours", "method": "as §3, §4, §5, §6, §7"}, "PPARD": {"system": "PPARD", "conditions": "gene PPARD (peroxisome proliferator-activated receptor); EFT-400 culture, 100 µL applied, 24 hours", "method": "as §3, §4, §5, §6, §7"}, "ILIA": {"system": "ILIA", "conditions": "gene ILIA (interleukin 1, alpha); EFT-400 culture, 100 µL applied, 24 hours", "method": "as §3, §4, §5, §6, §7"}, "TNF": {"system": "TNF", "conditions": "gene TNF (tumor necrosis factor (TNFsuperfamily,member)); EFT-400 culture, 100 µL applied, 24 hours", "method": "as §3, §4, §5, §6, §7"}, "Fibroblast Growth Factor": {"system": "Fibroblast Growth Factor", "experiment": "FGF production by Human Dermal Fibroblast cells, ELISA", "assay_type": "cell-based", "conditions": "HDF cells, graded concentrations, 48 hrs, vs un-treated cells; values only in Fig. 2", "method": "as §1"}},
  "note": "No end group written: not given here.",
  "data": [
    {"substance": "test composition containing peptide of SEQ ID No. 1: peptide of SEQ ID No. 1 linked to oleanolic acid represented by STR#1; pentapeptide conjugate of oleanolic acid (KTTKS; also: linked to oleanolic acid, place not given here)", "values": [
      {"measurement": "TGF- β expression in human dermal fibroblasts", "setting": "[1]", "value": "increase"},
      {"measurement": "skin expression of HSP-90 gene", "setting": "HSP-90", "value": "Up-regulation"},
      {"measurement": "skin expression of LOX gene", "setting": "LOX", "value": "Up-regulation"},
      {"measurement": "skin expression of TIMP gene", "setting": "TIMP", "value": "Up-regulation"},
      {"measurement": "Fold Increase", "setting": "DSG3", "value": 2.19, "unit": "Fold"},
      {"measurement": "skin expression of HSP-47 gene", "setting": "HSP-47", "value": "Up-regulation"},
      {"measurement": "Fold Increase", "setting": "TGFB1", "value": 1.72, "unit": "Fold"},
      {"measurement": "Fold Increase", "setting": "CLDN7", "value": 1.69, "unit": "Fold"},
      {"measurement": "Fold Increase", "setting": "FLG", "value": 2.23, "unit": "Fold"},
      {"measurement": "Fold Increase", "setting": "TP63", "value": 1.56, "unit": "Fold"},
      {"measurement": "Fold Increase", "setting": "LCE3D", "value": 1.61, "unit": "Fold"},
      {"measurement": "Fold Increase", "setting": "KLK5", "value": 2.44, "unit": "Fold"},
      {"measurement": "Fold Increase", "setting": "CDSN", "value": 1.78, "unit": "Fold"},
      {"measurement": "Fold Increase", "setting": "AQP5", "value": 1.97, "unit": "Fold"},
      {"measurement": "Fold Increase", "setting": "CALML5", "value": 1.91, "unit": "Fold"},
      {"measurement": "Fold Increase", "setting": "MKI67", "value": 1.83, "unit": "Fold"},
      {"measurement": "Fold Decrease", "setting": "KRT10", "value": -1.71, "unit": "Fold"},
      {"measurement": "Fold Increase", "setting": "BMP2", "value": 1.80, "unit": "Fold"},
      {"measurement": "Fold Increase", "setting": "ITGB4", "value": 1.76, "unit": "Fold"},
      {"measurement": "Fold Decrease", "setting": "KRT4", "value": -2.11, "unit": "Fold"},
      {"measurement": "Fold Increase", "setting": "LOR", "value": 1.63, "unit": "Fold"},
      {"measurement": "Fold Decrease", "setting": "PTGS2", "value": -1.80, "unit": "Fold"},
      {"measurement": "Fold Decrease", "setting": "IL8", "value": -1.68, "unit": "Fold"},
      {"measurement": "Fold Increase", "setting": "PPARD", "value": 1.59, "unit": "Fold"},
      {"measurement": "Fold Decrease", "setting": "ILIA", "value": -1.77, "unit": "Fold"},
      {"measurement": "Fold Decrease", "setting": "TNF", "value": -4.34, "unit": "Fold"},
      {"measurement": "fibroblast growth factor expression in human dermal fibroblasts", "setting": "Fibroblast Growth Factor", "value": "increase"}
    ]}
  ]
}
